Laboratory results as given in patent US3933834A, “Unsymmetrical esters of N-substituted 1,4-dihydropyridine 3,5-dicarboxylic acid” (Bayer Aktiengesellschaft, priority 1972, dated 1976).

Experiments:
hypertensive rats = experiment: hypotensive activity: blood pressure of hypertensive rats after peroral administration; format: in vivo; conditions: Rattus norvegicus, po, read-out: Peroral Dose: lowest dose which results in at least a 15 mm Hg reduction in blood pressure
Source text: The hypotensive activity of the present compounds can be observed by measuring the blood pressure of hypertensive rats following administration of the compounds.

[1] = toxicity (LD50) measured on mice by peroral administration; conditions: mouse, in vivo, po
coronary vessels = experiment: coronary vessel dilation: rise in oxygen saturation in the coronary sinus in the narcotized, heart-catheterized dog; format: in vivo; conditions: intravenous
Source text: They can accordingly be used where either or both of these effects are desired. Thus upon parenteral, oral or sublingual administration, the compounds produce a distinct and long lasting dilation of the coronary vessels which is intensified by a simultaneous nitrite-like effect of reducing the load on the heart. […] The effect on heart metabolism is thus one of energy saving. In addition, the compounds lower the blood pressure of normotonic and hypertonic animals and can thus be used as antihypertensive agents. These properties can be conveniently observed in well known laboratory models. Thus, for example, the coronary vessel dilation effect of the compounds of the invention was compared with the action of Persantin by measuring the rise in oxygen saturation in the coronary sinus in the narcotized, heart-catheterized dog, with the results reported in Table I, below.
^1 Dose given in mg/kg. body weight, administered intravenously;
^2 O2 rise given as % rise in oxygen saturation;
^3 Reversion time given is time in hours for reversion to the initial

SMILES: CCOC(=O)C1=C(C)N(C)C(C)=C(C(=O)OC)C1c1cccc([N+](=O)[O-])c1 (centres unmarked) [Example 1, 1,2,6-trimethyl-4-(3'-nitrophenyl)-1,4-dihydropyridine-3,5-dicarboxylic acid 3-methyl-ester-5-ethyl-ester]
- minimal effective dose (hypertensive rats): 0.3 mg/kg
- LD50 [1]: 3000 mg/kg

SMILES: COC(=O)C1=C(C)N(C)C(C)=C(C(=O)OC(C)C)C1c1cccc([N+](=O)[O-])c1 (centres unmarked) [Example 2, 1,2,6-trimethyl-4-(3'-nitrophenyl)-1,4-dihydropyridine-3,5-dicarboxylic acid 3-methyl-ester-5-isopropyl-ester]
- minimal effective dose (hypertensive rats): 1 mg/kg
- O2 % Rise (rise in oxygen saturation in the coronary sinus) (coronary vessels; 0.01 mg/kg): 31%
- Reversion time (to the initial value) (coronary vessels; 0.01 mg/kg): > 3.5 h
- LD50 [1]: 3000 mg/kg

SMILES: CCOC(=O)C1=C(C)N(C)C(C)=C(C(=O)OC(C)C)C1c1cccc([N+](=O)[O-])c1 (centres unmarked) [Example 3, 1,2,6-trimethyl-4-(3'-nitrophenyl)-1,4-dihydropyridine-3,5-dicarboxylic acid 3-ethyl-ester-5-isopropyl-ester]
- minimal effective dose (hypertensive rats): 0.3 mg/kg
- O2 % Rise (rise in oxygen saturation in the coronary sinus) (coronary vessels; 0.1 mg/kg): 39%
- Reversion time (to the initial value) (coronary vessels; 0.1 mg/kg): > 6 h
- LD50 [1]: 3000 mg/kg

SMILES: C=CCOC(=O)C1=C(C)N(C)C(C)=C(C(=O)OCC)C1c1ccccc1C#N (centres unmarked) [Example 6, 1,2,6-trimethyl-4-(2'-cyanophenyl)-1,4-dihydropyridine-3,5-dicarboxylic acid 3-ethyl-ester-5-allyl-ester]
- minimal effective dose (hypertensive rats): 0.3 mg/kg
- O2 % Rise (rise in oxygen saturation in the coronary sinus) (coronary vessels; 0.05 mg/kg): 39%
- Reversion time (to the initial value) (coronary vessels; 0.05 mg/kg): > 4 h

SMILES: OCCN(CCO)c1nc(N2CCCCC2)c2nc(N(CCO)CCO)nc(N3CCCCC3)c2n1 [Persantin, reference compound]
- O2 % Rise (rise in oxygen saturation in the coronary sinus) (coronary vessels; 0.3 mg/kg): 23%
- Reversion time (to the initial value) (coronary vessels; 0.3 mg/kg): 1 to 2 h
- O2 % Rise (rise in oxygen saturation in the coronary sinus) (coronary vessels; 0.4 mg/kg): 34%
- Reversion time (to the initial value) (coronary vessels; 0.4 mg/kg): 1 to 2 h
